Data reported in patent US20200277355A1 (GUILIN EIGHT PLUS ONE PHARMACEUTICAL CO., LTD., priority 2017, published 2020).
Read-outs that look alike come from different tables or passages of the source. No end group written: not given here.

How the values were obtained:
[1] = Plasma half-life in SD rats (ELISA); type: in vivo
Procedure: The assay was performed according to the manufacturer's instructions using an ELISA kit purchased from Genzyme. Serum samples were collected from the […] with heparinized 50 μL capillaries, and blood samples were collected at 1 min, 2 min, 3 min, 5 min, 10 min, 15 min, 20 min, 30 min, 45 min, 1 h, 2 h, 4 h, 6 h, 8 h after treatment. After standing for 2 h, the sample was centrifuged, and the obtained supernatant was stored at −20° C. for testing.

[2] = Isoelectric point of Hydrostatin-SN10; type: physicochemical
[3] = target: T1, TNFR2 (Homo sapiens, UniProt P20333); test: MST binding of Hydrostatin-SN10 to TNFR2
T1 sequence (P20333 23-461): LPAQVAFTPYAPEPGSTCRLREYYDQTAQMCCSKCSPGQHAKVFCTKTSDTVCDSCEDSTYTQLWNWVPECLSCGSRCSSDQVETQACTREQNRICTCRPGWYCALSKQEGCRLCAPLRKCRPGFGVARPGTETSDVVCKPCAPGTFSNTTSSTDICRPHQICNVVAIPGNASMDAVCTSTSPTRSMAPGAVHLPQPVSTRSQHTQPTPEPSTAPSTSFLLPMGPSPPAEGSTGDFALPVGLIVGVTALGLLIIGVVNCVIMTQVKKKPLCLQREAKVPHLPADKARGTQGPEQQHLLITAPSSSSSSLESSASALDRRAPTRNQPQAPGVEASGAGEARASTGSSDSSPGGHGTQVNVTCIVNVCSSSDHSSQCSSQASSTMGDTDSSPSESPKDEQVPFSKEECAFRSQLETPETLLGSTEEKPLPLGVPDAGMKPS

[4] = target: T2, TNF-α (Homo sapiens, UniProt P01375); test: MST binding of Hydrostatin-SN10 to TNF-α; settings: fluorescently labeled TNF-α
[5] = target: T3, TNFR1 (Homo sapiens, UniProt P19438); test: biochemical
T3 sequence (P19438 30-455): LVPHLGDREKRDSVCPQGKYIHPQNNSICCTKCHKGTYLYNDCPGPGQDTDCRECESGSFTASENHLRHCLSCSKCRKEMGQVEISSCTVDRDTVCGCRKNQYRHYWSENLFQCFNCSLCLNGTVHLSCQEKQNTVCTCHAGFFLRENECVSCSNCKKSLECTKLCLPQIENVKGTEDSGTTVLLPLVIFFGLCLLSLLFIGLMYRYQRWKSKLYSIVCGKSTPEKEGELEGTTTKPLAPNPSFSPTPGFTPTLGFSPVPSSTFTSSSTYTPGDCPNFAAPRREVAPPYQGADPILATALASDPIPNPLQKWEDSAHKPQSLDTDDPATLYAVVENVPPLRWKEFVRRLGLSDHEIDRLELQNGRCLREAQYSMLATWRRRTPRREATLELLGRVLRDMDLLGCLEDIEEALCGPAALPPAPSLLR

[6] = target: T3, TNFR1; test: biochemical; remark: listed apart in the source
[7] = target: T4, TNFR1-TNF-α binding (Homo sapiens, UniProt P19438); test: MST competitive inhibition of TNFR1-TNF-α binding
T4 sequence (P19438 30-211 limits assumed): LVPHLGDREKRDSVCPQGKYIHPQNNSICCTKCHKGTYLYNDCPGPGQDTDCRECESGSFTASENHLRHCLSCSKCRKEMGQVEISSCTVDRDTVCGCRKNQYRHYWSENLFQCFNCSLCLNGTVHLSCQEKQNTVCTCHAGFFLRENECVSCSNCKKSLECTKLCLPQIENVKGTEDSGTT
From the text: On-machine detection, software fitting to find the KD value. The changes of TNF-α saturation concentration, response amplitude and KD value before and after Hydrostatin-SN10 were compared.

[8] = tested on: OXZ-induced acute colitis mouse; test: Oxazolone-induced acute colitis mouse model; type: in vivo, Balb/c mice; settings: for body weight change: 400 ug/kg/d i.p. 3 days, FIG. 13; for colon length: 3rd day after enema, FIG. 15; for MPO activity in colon tissue: FIG. 17; for serum IFN-γ level / serum IL-1β level / serum IL-6 level / serum IL-10 (anti-inflammatory factor) / serum TNF-α level: FIG. 18; for pathological changes in colon tissue, HE staining: FIG. 19; for expression of TNF-α in colon tissue sections: FIG. 20
Procedure: Establishment of an oxazolone-induced mouse colitis animal model: Male Balb/c mice, 6-8 weeks old, were randomly divided into 8 groups, each containing 10 mice. On the first day, the back skin of the mouse was shaved (1.5 cm×1.5 cm), and the normal group was coated with 0.15 mL of acetone/olive oil solution (acetone/olive oil volume ratio of 4:1). The model group and the SN10 group were negatively controlled. The drug and the positive control group were skin-coated with 0.15 mL of 3% (w/v) oxazolone (dissolved in acetone/olive oil solution) for skin pre-sensitization. On the 8th day, the mice were anesthetized by intraperitoneal injection of 4% chloral hydrate. The 3.51 catheter was slowly and gently inserted into the colon of the mouse about 4 cm from the anus. The normal group was injected with 0.1 mL of 50% ethanol, and the other groups were injected with […]. 1% (w/v) oxazolone (dissolved in 50% ethanol), slowly pull out the catheter, keep the mouse vertical, head down position for 60 s, so that the drug solution is fully left in the intestinal lumen. After enema, the normal group and the model group were given intraperitoneal injection of 0.1 mL of normal saline. […] The injection dose was 400 ug/kg/d, and the positive drug group was given 0.1 mL sulfasalazine and intravesical injection of infliximab (dissolved in normal saline) at doses of 400 mg/kg/d and 5 mg/respectively. Each kg/d was administered continuously for 3 days.
The body weight changes, stool characteristics and blood in the stool were observed and recorded daily after enema.
On the 3rd day after enema, the mice were sacrificed by cervical dislocation. The colon and spleen were removed immediately. The length of the colon was measured.
Part of the diseased colon tissue was excised and weighed. MPO) activity in mouse colon tissue was detected using a myeloperoxidase (MPO) assay kit (Nanjing Institute of Bioengineering). MPO is a functional marker and activation marker for neutrophils and is involved in many processes that regulate inflammatory responses. Excessive MPO activity catalyzes the reaction to produce excess oxidants, causing local oxidative stress and oxidative tissue damage.
The colon of the mouse were washed with saline, fixed in 10% formalin. Tissue sections were prepared and stained with HE.

[9] = target: T5, TNF-α-TNFR1 binding (Homo sapiens, UniProt P19438); test: BIAcore (SPR) competitive inhibition of TNF-α-TNFR1 binding
T5 sequence (P19438 30-211 limits assumed): T4 sequence (P19438 30-211 limits assumed)

[10] = target: T2, TNF-α; test: BIAcore (SPR) binding of Hydrostatin-SN10 to TNF-α
[11] = tested on: DSS-induced acute colitis mouse; test: Dextran sulfate sodium-induced acute colitis mouse model; type: in vivo, Balb/c mice; settings: for body weight change: DSS 2.5% 7 days, 400 μg/kg/d intraperitoneal, FIG. 5; for myeloperoxidase (MPO) activity in colon tissue: FIG. 9; for serum IFN-γ content / serum IL-6 content / serum IL-10 (anti-inflammatory factor) / serum IL-β content / serum TNF-α content: FIG. 10; for colonic lesions, HE staining: FIG. 11; for TNF-α expressed in colon tissue sections: FIG. 12; for colon length: day 7, FIG. 7
Procedure: The specific implementation steps are as follows: Balb/c mice 6-8 weeks old were randomly divided into 8 groups, each group containing 10 mice.
According to Table 2, the disease activity index (DAI) score was obtained. […] Seven days after the model was established, the mouse were sacrificed by cervical dislocation, and the entire colon and spleen were removed. […] The spleen weight was measured and the spleen index was calculated.

Substance	overall treatment effect in oxazolone-induced colitis ([8]; 400 ug/kg/d i.p.)	body weight change [8]	colon length ([8]; 400 ug/kg/d i.p.)	MPO activity in colon tissue ([8]; 400 ug/kg/d i.p.)	serum IFN-γ level ([8]; 400 ug/kg/d i.p.)	serum IL-1β level ([8]; 400 ug/kg/d i.p.)	serum IL-6 level ([8]; 400 ug/kg/d i.p.)	serum IL-10 (anti-inflammatory factor) ([8]; 400 ug/kg/d i.p.)	serum TNF-α level ([8]; 400 ug/kg/d i.p.)	pathological changes in colon tissue, HE staining ([8]; 400 ug/kg/d i.p.)	expression of TNF-α in colon tissue sections ([8]; 400 ug/kg/d i.p.)	body weight change [11]	overall treatment effect in DSS-induced colitis ([11]; DSS, 400 μg/kg/d i.p.)	myeloperoxidase (MPO) activity in colon tissue ([11]; DSS, 400 μg/kg/d i.p.)	serum IFN-γ content ([11]; DSS, 400 μg/kg/d i.p.)	serum IL-6 content ([11]; DSS, 400 μg/kg/d i.p.)	serum IL-10 (anti-inflammatory factor) ([11]; DSS, 400 μg/kg/d i.p.)	serum IL-β content ([11]; DSS, 400 μg/kg/d i.p.)	serum TNF-α content ([11]; DSS, 400 μg/kg/d i.p.)	colonic lesions, HE staining ([11]; DSS, 400 μg/kg/d i.p.)	also measured
H-DEQHLETELH [Hydrostatin-SN10]	effective in the treatment of oxazolone-induced mouse colitis animal model	significantly reduced the weight loss	significantly improved colon length	effective in inhibiting the increase in MPO activity	significantly reduced	significantly reduced	significantly reduced	significantly increased	significantly reduced	significantly attenuated pathological changes in mouse colon tissue	significantly reduced	effective in inhibiting the weight loss	effective in treating DSS-induced colitis animal models	significantly reduce MPO activity	significantly decreased	significantly decreased	significantly increased	significantly decreased	significantly decreased	effectively inhibit colonic lesions caused by DSS	half-life ([1]; rat, plasma, ELISA): 2.18 h; isoelectric point [2]: 4.39; binding to TNFR2 ([3]; fluorescently labeled TNFR2): not binding; binding to TNFR2 ([3]; fluorescently labeled TNFR2, listed as SN10): no binding; binding to TNF-α [4]: not binding; binding to TNF-α ([4]; listed as SN10): no binding; Kd [5]: 2800 nM; Kd [6]: ~2800 nM; competitive inhibition of the interaction of TNFR1 and TNF-α [7]: competitively inhibit; disease activity index (DAI) score ([8]; 400 ug/kg/d i.p., FIG. 14): effectively alleviate the symptoms of diarrhea and blood in the stool; spleen index ([8]; 400 ug/kg/d i.p., FIG. 16): significantly down-regulate the mouse spleen index; competitive inhibition of the interaction of TNFR1 with TNF-α [9]: competitively inhibits; binding to TNF-α [10]: does not bind; binding to TNF-α ([10]; listed as SN10): no binding; disease activity index (DAI) score ([11]; DSS, 400 μg/kg/d i.p., FIG. 6): effectively alleviate the symptoms of diarrhea and blood in the stool; spleen index ([11]; DSS, 400 μg/kg/d i.p., FIG. 8): effectively inhibit spleen changes caused by colitis; TNF-α expressed in colon tissue sections ([11]; DSS, 400 μg/kg/d i.p.): alleviate the degree of inflammation in the colon tissue; colon length ([11]; DSS, 400 μg/kg/d i.p.): significantly improved the colon length
PEG-SN10: Hydrostatin-SN10 modified with mPEG2000; carboxyl group of mPEG2000 covalently linked to free amino group of N-terminal aspartic acid (mPEG2000-DEQHLETELH)	effective in the treatment of oxazolone-induced mouse colitis animal model	significantly reduced the weight loss	significantly improved colon length	effective in inhibiting the increase in MPO activity	significantly reduced	significantly reduced	significantly reduced	significantly increased	significantly reduced	significantly attenuated pathological changes in mouse colon tissue	significantly reduced	effective in inhibiting the weight loss	effective in treating DSS-induced colitis animal models	significantly reduce MPO activity	significantly decreased	significantly decreased	significantly increased	significantly decreased	significantly decreased	effectively inhibit colonic lesions caused by DSS	plasma half-life compared with Hydrostatin-SN10 ([1]; after PEG modification): longer plasma half-life; TNF-α expressed in colon tissue sections ([11]; DSS, 400 μg/kg/d i.p.): alleviate the degree of inflammation in the colon tissue; colon length ([11]; DSS, 400 μg/kg/d i.p.): significantly improved the colon length
